Data taken from US11053204B2, “Pyrimidinyloxy benzene derivatives as herbicides” (FMC Corporation, priority 2015, dated 2021).

Key:
Format in all cases: in vivo
[1] = test system: wheat (Triticum aestivum); test: Test A postemergence, visual injury rating; conditions: 0 to 100 scale, 0 is no effect, 100 is complete control, approximately 10 days
Procedure, shortened: (§1)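 Compounds in non-phytotoxic solvent with surfactant applied as soil spray preemergence, or postemergence to plants 2-10 cm at one- to two-leaf stage, in loam/sand. After approximately 10 days in greenhouse, injury rated visually versus untreated controls, 0 (no effect) to 100 (complete control).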

[2] = test system: galium (catchweed bedstraw, Galium aparine); test: Test A postemergence, visual injury rating; conditions: 0 to 100 scale, 0 is no effect, 100 is complete control, approximately 10 days
Procedure, shortened: as §1

[3] = test system: ragweed (common ragweed, Ambrosia elatior); test: Test A postemergence, visual injury rating; conditions: 0 to 100 scale, 0 is no effect, 100 is complete control, approximately 10 days
Procedure, shortened: as §1

[4] = test system: kochia (Kochia scoparia); test: Test A postemergence, visual injury rating; conditions: 0 to 100 scale, 0 is no effect, 100 is complete control, approximately 10 days
Procedure, shortened: as §1

[5] = test system: blackgrass (Alopecurus myosuroides); test: Test A postemergence, visual injury rating; conditions: 0 to 100 scale, 0 is no effect, 100 is complete control, approximately 10 days
Procedure, shortened: as §1

[6] = test system: pigweed (Amaranthus retroflexus); test: Test A postemergence, visual injury rating; conditions: 0 to 100 scale, 0 is no effect, 100 is complete control, approximately 10 days
Procedure, shortened: as §1

[7] = test system: Italian ryegrass (Lolium multiflorum); test: Test A postemergence, visual injury rating; conditions: 0 to 100 scale, 0 is no effect, 100 is complete control, approximately 10 days
Procedure, shortened: as §1

[8] = test system: giant foxtail (Setaria faberii); test: Test A postemergence, visual injury rating; conditions: 0 to 100 scale, 0 is no effect, 100 is complete control, approximately 10 days
Procedure, shortened: as §1

[9] = test system: corn (Zea mays); test: Test A postemergence, visual injury rating; conditions: 0 to 100 scale, 0 is no effect, 100 is complete control, approximately 10 days
Procedure, shortened: as §1

[10] = test system: barnyardgrass (Echinochloa crus-galli); test: Test A postemergence, visual injury rating; conditions: 0 to 100 scale, 0 is no effect, 100 is complete control, approximately 10 days
Procedure, shortened: as §1

[11] = test system: ragweed (common ragweed, Ambrosia elatior); test: Test A preemergence, visual injury rating; conditions: for Plant response rating, Ragweed: 31 g ai/ha, 0 to 100 scale, 0 no effect, 100 complete control; for Ragweed plant response rating: 125 g ai/ha, 0 to 100 scale (0 no effect, 100 complete control)
Procedure, shortened: as §1

[12] = test system: kochia (Kochia scoparia); test: Test A preemergence, visual injury rating; conditions: for Plant response rating, Kochia: 31 g ai/ha, 0 to 100 scale, 0 no effect, 100 complete control; for Kochia plant response rating: 125 g ai/ha, 0 to 100 scale (0 no effect, 100 complete control)
Procedure, shortened: as §1

[13] = test system: pigweed (Amaranthus retroflexus); test: Test A preemergence, visual injury rating; conditions: for Plant response rating, Pigweed: 31 g ai/ha, 0 to 100 scale, 0 no effect, 100 complete control; for Pigweed plant response rating: 125 g ai/ha, 0 to 100 scale (0 no effect, 100 complete control)
Procedure, shortened: as §1

[14] = test system: Italian ryegrass (Lolium multiflorum); test: Test A preemergence, visual injury rating; conditions: for Plant response rating, Ryegrass, Italian: 31 g ai/ha, 0 to 100 scale, 0 no effect, 100 complete control; for Ryegrass, Italian plant response rating: 125 g ai/ha, 0 to 100 scale (0 no effect, 100 complete control)
Procedure, shortened: as §1

[15] = test system: giant foxtail (Setaria faberii); test: Test A preemergence, visual injury rating; conditions: for Plant response rating, Foxtail, Giant: 31 g ai/ha, 0 to 100 scale, 0 no effect, 100 complete control; for Foxtail, Giant plant response rating: 125 g ai/ha, 0 to 100 scale (0 no effect, 100 complete control)
Procedure, shortened: as §1

[16] = test system: barnyardgrass (Echinochloa crus-galli); test: Test A preemergence, visual injury rating; conditions: for Plant response rating, Barnyardgrass: 31 g ai/ha, 0 to 100 scale, 0 no effect, 100 complete control; for Barnyardgrass plant response rating: 125 g ai/ha, 0 to 100 scale (0 no effect, 100 complete control)
Procedure, shortened: as §1

[17] = test system: rice (Oryza sativa); test: Test B flooded paddy test, plant response rating; conditions: 250 g ai/ha; Flood; scale of 0 to 100 where 0 is no effect and 100 is complete control; 13 to 15 days
Procedure, shortened: (§2)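 In-water treatment: compound dosed into 3 cm flood over soil, water level unchanged throughout. Controls run alongside; visual assessment at day 13–15.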

[18] = test system: sedge, umbrella (small-flower umbrella sedge, Cyperus difformis); test: Test B flooded paddy test, plant response rating; conditions: 250 g ai/ha; Flood; scale of 0 to 100 where 0 is no effect and 100 is complete control; 13 to 15 days
Procedure, shortened: as §2

[19] = test system: ducksalad (Heteranthera limosa); test: Test B flooded paddy test, plant response rating; conditions: 250 g ai/ha; Flood; scale of 0 to 100 where 0 is no effect and 100 is complete control; 13 to 15 days
Procedure, shortened: as §2

[20] = test system: barnyardgrass (Echinochloa crus-galli); test: Test B flooded paddy test, plant response rating; conditions: 250 g ai/ha; Flood; scale of 0 to 100 where 0 is no effect and 100 is complete control; 13 to 15 days
Procedure, shortened: as §2

Row | SMILES | Wheat plant response rating ([1]; 31 g ai/ha) | Wheat plant response rating ([1]; 125 g ai/ha) | Galium plant response rating ([2]; 31 g ai/ha) | Galium plant response rating ([2]; 125 g ai/ha) | Ragweed plant response rating ([3]; 31 g ai/ha) | Ragweed plant response rating ([3]; 125 g ai/ha) | Kochia plant response rating ([4]; 31 g ai/ha) | Kochia plant response rating ([4]; 125 g ai/ha) | Blackgrass plant response rating ([5]; 31 g ai/ha) | Blackgrass plant response rating ([5]; 125 g ai/ha) | Pigweed plant response rating ([6]; 31 g ai/ha) | Pigweed plant response rating ([6]; 125 g ai/ha) | Ryegrass, Italian plant response rating ([7]; 31 g ai/ha) | Ryegrass, Italian plant response rating ([7]; 125 g ai/ha) | Foxtail, Giant plant response rating ([8]; 31 g ai/ha) | Foxtail, Giant plant response rating ([8]; 125 g ai/ha) | Corn plant response rating ([9]; 31 g ai/ha) | Corn plant response rating ([9]; 125 g ai/ha) | Barnyardgrass plant response rating ([10]; 31 g ai/ha) | Barnyardgrass plant response rating ([10]; 125 g ai/ha) | other results
1 | O=C(OCCC(F)(F)F)c1cc(Br)ccc1Oc1ncc(Cl)cn1 [Compound 94] | 0 | 0 | 0 | 0 | 0 | 0 | 0 | 0 | 0 | 0 | 0 | 0 | 0 | 0 | 0 | 0 | 0 | 0 | 0 | 0 | Plant response rating, Ragweed [11]: 0; Ragweed plant response rating [11]: 0; Plant response rating, Kochia [12]: 0; Kochia plant response rating [12]: 0; Plant response rating, Pigweed [13]: 0; Pigweed plant response rating [13]: 0; Plant response rating, Ryegrass, Italian [14]: 0; Ryegrass, Italian plant response rating [14]: 0; Plant response rating, Foxtail, Giant [15]: 0; Foxtail, Giant plant response rating [15]: 0; Plant response rating, Barnyardgrass [16]: 0; Barnyardgrass plant response rating [16]: 0; Plant response rating, Rice [17]: 0; Plant response rating, Sedge, Umbrella [18]: 0; Plant response rating, Ducksalad [19]: 0; Plant response rating, Barnyardgrass [20]: 0
2 | CCON=C(C)c1c(Br)cccc1Oc1ncc(Cl)cn1 [Compound 95] | 0 | 0 | 10 | 40 | 0 | 0 | 0 | 0 | 0 | 10 | 10 | 20 | 0 | 0 | 0 | 60 | 0 | 10 | 0 | 30 | Plant response rating, Ragweed [11]: 0; Ragweed plant response rating [11]: 0; Plant response rating, Kochia [12]: 0; Kochia plant response rating [12]: 0; Plant response rating, Pigweed [13]: 0; Pigweed plant response rating [13]: 40; Plant response rating, Ryegrass, Italian [14]: 0; Ryegrass, Italian plant response rating [14]: 0; Plant response rating, Foxtail, Giant [15]: 0; Foxtail, Giant plant response rating [15]: 50; Plant response rating, Barnyardgrass [16]: 10; Barnyardgrass plant response rating [16]: 70; Plant response rating, Rice [17]: 0; Plant response rating, Sedge, Umbrella [18]: 0; Plant response rating, Ducksalad [19]: 30; Plant response rating, Barnyardgrass [20]: 0
